Assay results from US20070049564A1 (Wyeth, priority 2005, published 2007).
Converted amounts (≈) assume the structure as drawn. Read-outs that look alike come from different tables or passages of the source.

Experiments:
[1] = system: E. coli GC 2236; assay: MIC, broth microdilution; conditions: Escherichia coli
[2] = system: E. coli GC 2233; assay: MIC, broth microdilution; conditions: Escherichia coli
[3] = system: E. coli GC 2234; assay: MIC, broth microdilution; conditions: Escherichia coli
[4] = system: E. coli GC 2272; assay: MIC, broth microdilution; conditions: Escherichia coli
[5] = system: E. coli GC 6465; assay: MIC, broth microdilution; conditions: Escherichia coli
[6] = system: E. coli GC 1073; assay: MIC, broth microdilution; conditions: Escherichia coli
[7] = system: S. aureus GC 1131; assay: MIC, broth microdilution; conditions: Staphylococcus aureus
[8] = system: S. aureus GC 6466; assay: MIC, broth microdilution; conditions: Staphylococcus aureus
[9] = system: S. aureus GC 1079; assay: MIC, broth microdilution; conditions: Staphylococcus aureus
[10] = system: S. aureus GC 4536; assay: MIC, broth microdilution; conditions: Staphylococcus aureus
[11] = system: S. aureus GC 6469; assay: MIC, broth microdilution; conditions: Staphylococcus aureus
[12] = system: S. epidermidis GC 4935; assay: MIC, broth microdilution; conditions: Staphylococcus epidermidis
[13] = system: E. faecalis GC 4555; assay: MIC, broth microdilution; conditions: Enterococcus faecalis
Method: Antimicrobial susceptibility testing. The in vitro activities of the antibiotics are determined by the broth microdilution method as recommended by the National Committee for Clinical Laboratory Standards (NCCLS) (1). Mueller-Hinton II broth (MHBII)(BBL Cockeysville, Md.) is the medium employed in the testing procedures. Microtiter plates containing serial dilutions of each antimicrobial agent are inoculated with each organism to yield the appropriate density (10^5 CFU/ml) in a 100 μl final volume. The plates are incubated for 18-22 hours at 35° C. in ambient air.
Representative compounds were first incubated in mouse serum for an hour prior to the in vitro testing against a panel of selected gram-positive and gram-negative bacteria strains. All compounds were also pre-incubated in water for an hour prior to testing as control. Representative compounds of Formula I were incubated in human serum prior to MIC determination.

[14] = system: E. faecalis GC 2265; assay: MIC, broth microdilution; conditions: Enterococcus faecalis
[15] = system: E. faecium GC 2243; assay: MIC, broth microdilution; conditions: Enterococcus faecium
[16] = system: S. pneumoniae+ GC 4465; assay: MIC, broth microdilution; conditions: Streptococcus pneumoniae
[17] = system: S. pyogenes GC 4563; assay: MIC, broth microdilution; conditions: Streptococcus pyogenes
[18] = system: c. albicans GC 3066; assay: MIC, broth microdilution
[19] = system: E. coli; assay: Range of MIC for E. coli strains; conditions: Escherichia coli
[20] = system: Staph.; assay: Range of MIC for Staph. strains, including MRSA; conditions: Staphylococcus aureus
[21] = GC2236, pre-incubation in human serum
[22] = GC2236, pre-incubation in mouse serum
[23] = GC2236, pre-incubation in water
[24] = GC2233, pre-incubation in human serum
[25] = GC2233, pre-incubation in mouse serum
[26] = GC2233, pre-incubation in water
[27] = GC2234, pre-incubation in human serum
[28] = GC2234, pre-incubation in mouse serum
[29] = GC2234, pre-incubation in water
[30] = GC2272, pre-incubation in human serum
[31] = GC2272, pre-incubation in mouse serum
[32] = GC2272, pre-incubation in water
[33] = GC6465, pre-incubation in human serum
[34] = GC6465, pre-incubation in mouse serum
[35] = GC6465, pre-incubation in water
[36] = GC1073, pre-incubation in human serum
[37] = GC1073, pre-incubation in mouse serum
[38] = GC1073, pre-incubation in water
[39] = GC1131, pre-incubation in human serum
[40] = GC1131, pre-incubation in mouse serum
[41] = GC1131, pre-incubation in water
[42] = GC6466, pre-incubation in human serum
[43] = GC6466, pre-incubation in mouse serum
[44] = GC6466, pre-incubation in water
[45] = GC1079, pre-incubation in human serum
[46] = GC1079, pre-incubation in mouse serum
[47] = GC1079, pre-incubation in water
[48] = GC4536, pre-incubation in human serum
[49] = GC4536, pre-incubation in mouse serum
[50] = GC4536, pre-incubation in water
[51] = GC6469, pre-incubation in human serum
[52] = GC6469, pre-incubation in mouse serum
[53] = GC6469, pre-incubation in water
[54] = GC4935, pre-incubation in human serum
[55] = GC4935, pre-incubation in mouse serum
[56] = GC4935, pre-incubation in water
[57] = GC4555, pre-incubation in human serum
[58] = GC4555, pre-incubation in mouse serum
[59] = GC4555, pre-incubation in water
[60] = GC2265, pre-incubation in human serum
[61] = GC2265, pre-incubation in mouse serum
[62] = GC2265, pre-incubation in water
[63] = GC2243, pre-incubation in human serum
[64] = GC2243, pre-incubation in mouse serum
[65] = GC2243, pre-incubation in water
[66] = GC4563, pre-incubation in human serum
[67] = GC4563, pre-incubation in mouse serum
[68] = GC4563, pre-incubation in water
[69] = 20 h, read-out: Range of MIC, E. coli (Mouse Serum)
[70] = MRSA, read-out: Range of MIC, Staph (Mouse Serum)
[71] = read-out: Minimum inhibitory concentration (MIC), Staph (Human Serum)
[72] = read-out: Minimum inhibitory concentration (MIC), Staph (Water)

CN(C)c1cc(NC(=O)CN(C(=O)OCOC(=O)C2CCC2)C(C)(C)C)c(O)c2c1C[C@H]1C[C@H]3[C@H](N(C)C)C(O)=C(C(N)=O)C(=O)[C@@]3(O)C(O)=C1C2=O [Example 62, ({[(2-{[(5aR,6aS,7S,10aS)-9-(aminocarbonyl)-4,7-bis(dimethylamino)-1,8,10a,11-tetrahydroxy-10,12-dioxo-5,5a,6,6a,7,10,10a,12-octahydrotetracen-2-yl]amino}-2-oxoethyl)(tert-butyl)amino]carbonyl}oxy)methyl cyclobutanecarboxylate]
MIC [1, 21]: 8 µg/mL (≈ 10.8 µM)
MIC [1, 22]: 0.5 µg/mL (≈ 0.674 µM)
MIC [1, 23]: 4 µg/mL (≈ 5.39 µM)
MIC [2, 24]: 4 µg/mL (≈ 5.39 µM)
MIC [2, 25]: 2 µg/mL (≈ 2.7 µM)
MIC [2, 26]: 8 µg/mL (≈ 10.8 µM)
MIC [3, 27]: 2 µg/mL (≈ 2.7 µM)
MIC [3, 28]: 1 µg/mL (≈ 1.35 µM)
MIC [3, 29]: 8 µg/mL (≈ 10.8 µM)
MIC [4, 30]: 4 µg/mL (≈ 5.39 µM)
MIC [4, 31]: 1 µg/mL (≈ 1.35 µM)
MIC [4, 32]: 8 µg/mL (≈ 10.8 µM)
MIC [5, 33]: 8 µg/mL (≈ 10.8 µM)
MIC [5, 34]: 2 µg/mL (≈ 2.7 µM)
MIC [5, 35]: > 64 µg/mL
MIC [6, 36]: 4 µg/mL (≈ 5.39 µM)
MIC [6, 37]: 0.5 µg/mL (≈ 0.674 µM)
MIC [6, 38]: 16 µg/mL (≈ 21.6 µM)
MIC [7, 39]: 0.5 µg/mL (≈ 0.674 µM)
MIC [7, 40]: 0.5 µg/mL (≈ 0.674 µM)
MIC [7, 41]: 0.5 µg/mL (≈ 0.674 µM)
MIC [8, 42]: 0.5 µg/mL (≈ 0.674 µM)
MIC [8, 43]: 0.5 µg/mL (≈ 0.674 µM)
MIC [8, 44]: 0.25 µg/mL (≈ 0.337 µM)
MIC [9, 45]: 0.5 µg/mL (≈ 0.674 µM)
MIC [9, 46]: 1 µg/mL (≈ 1.35 µM)
MIC [9, 47]: 0.5 µg/mL (≈ 0.674 µM)
MIC [10, 48]: 0.5 µg/mL (≈ 0.674 µM)
MIC [10, 49]: 0.5 µg/mL (≈ 0.674 µM)
MIC [10, 50]: 0.5 µg/mL (≈ 0.674 µM)
MIC [11, 51]: 0.5 µg/mL (≈ 0.674 µM)
MIC [11, 52]: 1 µg/mL (≈ 1.35 µM)
MIC [11, 53]: 1 µg/mL (≈ 1.35 µM)
MIC [12, 54]: 0.5 µg/mL (≈ 0.674 µM)
MIC [12, 55]: 0.5 µg/mL (≈ 0.674 µM)
MIC [12, 56]: 0.5 µg/mL (≈ 0.674 µM)
MIC [13, 57]: 0.5 µg/mL (≈ 0.674 µM)
MIC [13, 58]: 1 µg/mL (≈ 1.35 µM)
MIC [13, 59]: 1 µg/mL (≈ 1.35 µM)
MIC [14, 60]: 0.5 µg/mL (≈ 0.674 µM)
MIC [14, 61]: 0.5 µg/mL (≈ 0.674 µM)
MIC [14, 62]: 1 µg/mL (≈ 1.35 µM)
MIC [15, 63]: 0.5 µg/mL (≈ 0.674 µM)
MIC [15, 64]: 0.5 µg/mL (≈ 0.674 µM)
MIC [15, 65]: 0.5 µg/mL (≈ 0.674 µM)
MIC ([16]; pre-incubation in human serum): 0.5 µg/mL (≈ 0.674 µM)
MIC ([16]; pre-incubation in mouse serum): 1 µg/mL (≈ 1.35 µM)
MIC ([16]; pre-incubation in water): 0.5 µg/mL (≈ 0.674 µM)
MIC [17, 66]: 0.12 µg/mL (≈ 0.162 µM)
MIC [17, 67]: 0.25 µg/mL (≈ 0.337 µM)
MIC [17, 68]: 0.25 µg/mL (≈ 0.337 µM)
MIC ([18]; Candida albicans, GC3066): > 64 µg/mL
MIC ([18]; pre-incubation in human serum): >64 UG/ML
MIC ([18]; pre-incubation in mouse serum): >64 UG/ML
MIC [19, 69]: 0.5 to 2 µg/mL (≈ 0.674 to 2.7 µM)
MIC ([19]; read-out: Minimum inhibitory concentration (MIC), E. coli (Human Serum)): 2 to 8 µg/mL (≈ 2.7 to 10.8 µM)
MIC [20, 70]: 0.5 to 1 µg/mL (≈ 0.674 to 1.35 µM)
MIC [20, 71]: 0.5 µg/mL (≈ 0.674 µM)
MIC [20, 72]: 0.25 to 1 µg/mL (≈ 0.337 to 1.35 µM)

CN(C)c1cc(NC(=O)CN(C(=O)OCOC(=O)CCC2CCCCC2)C(C)(C)C)c(O)c2c1C[C@H]1C[C@H]3[C@H](N(C)C)C(O)=C(C(N)=O)C(=O)[C@@]3(O)C(O)=C1C2=O [Example 63, ({[(2-{[(5aR,6aS,7S,10aS)-9-(aminocarbonyl)-4,7-bis(dimethylamino)-1,8,10a,11-tetrahydroxy-10,12-dioxo-5,5a,6,6a,7,10,10a,12-octahydrotetracen-2-yl]amino}-2-oxoethyl)(tert-butyl)amino]carbonyl}oxy)methyl 3-cyclohexylpropanoate]
MIC [1, 21]: > 64 µg/mL
MIC [1, 22]: 1 µg/mL (≈ 1.25 µM)
MIC [1, 23]: > 64 µg/mL
MIC [2, 24]: > 64 µg/mL
MIC [2, 25]: 1 µg/mL (≈ 1.25 µM)
MIC [2, 26]: > 64 µg/mL
MIC [3, 27]: 64 µg/mL (≈ 80.2 µM)
MIC [3, 28]: 1 µg/mL (≈ 1.25 µM)
MIC [3, 29]: > 64 µg/mL
MIC [4, 30]: > 64 µg/mL
MIC [4, 31]: 1 µg/mL (≈ 1.25 µM)
MIC [4, 32]: > 64 µg/mL
MIC [5, 33]: > 64 µg/mL
MIC [5, 34]: 2 µg/mL (≈ 2.51 µM)
MIC [5, 35]: > 64 µg/mL
MIC [6, 36]: > 64 µg/mL
MIC [6, 37]: 2 µg/mL (≈ 2.51 µM)
MIC [6, 38]: > 64 µg/mL
MIC [7, 39]: 1 µg/mL (≈ 1.25 µM)
MIC [7, 40]: 1 µg/mL (≈ 1.25 µM)
MIC [7, 41]: 4 µg/mL (≈ 5.01 µM)
MIC [8, 42]: 1 µg/mL (≈ 1.25 µM)
MIC [8, 43]: 0.5 µg/mL (≈ 0.627 µM)
MIC [8, 44]: 2 µg/mL (≈ 2.51 µM)
MIC [9, 45]: 2 µg/mL (≈ 2.51 µM)
MIC [9, 46]: 1 µg/mL (≈ 1.25 µM)
MIC [9, 47]: 8 µg/mL (≈ 10 µM)
MIC [10, 48]: 1 µg/mL (≈ 1.25 µM)
MIC [10, 49]: 1 µg/mL (≈ 1.25 µM)
MIC [10, 50]: 4 µg/mL (≈ 5.01 µM)
MIC [11, 51]: 2 µg/mL (≈ 2.51 µM)
MIC [11, 52]: 1 µg/mL (≈ 1.25 µM)
MIC [11, 53]: 16 µg/mL (≈ 20.1 µM)
MIC [12, 54]: 2 µg/mL (≈ 2.51 µM)
MIC [12, 55]: 2 µg/mL (≈ 2.51 µM)
MIC [12, 56]: 4 µg/mL (≈ 5.01 µM)
MIC [13, 57]: 2 µg/mL (≈ 2.51 µM)
MIC [13, 58]: 1 µg/mL (≈ 1.25 µM)
MIC [13, 59]: 4 µg/mL (≈ 5.01 µM)
MIC [14, 60]: 2 µg/mL (≈ 2.51 µM)
MIC [14, 61]: 1 µg/mL (≈ 1.25 µM)
MIC [14, 62]: 8 µg/mL (≈ 10 µM)
MIC [15, 63]: 0.25 µg/mL (≈ 0.313 µM)
MIC [15, 64]: 0.25 µg/mL (≈ 0.313 µM)
MIC [15, 65]: 0.5 µg/mL (≈ 0.627 µM)
MIC ([16]; pre-incubation in human serum): 0.5 µg/mL (≈ 0.627 µM)
MIC ([16]; pre-incubation in mouse serum): 0.5 µg/mL (≈ 0.627 µM)
MIC ([16]; pre-incubation in water): 0.5 µg/mL (≈ 0.627 µM)
MIC [17, 66]: 0.12 µg/mL (≈ 0.15 µM)
MIC [17, 67]: 0.12 µg/mL (≈ 0.15 µM)
MIC [17, 68]: 0.12 µg/mL (≈ 0.15 µM)
MIC ([18]; Candida albicans, GC3066): > 64 µg/mL
MIC ([18]; pre-incubation in human serum): >64 UG/ML
MIC ([18]; pre-incubation in mouse serum): >64 UG/ML
MIC [19, 69]: 0.5 to 2 µg/mL (≈ 0.627 to 2.51 µM)
MIC ([19]; read-out: Minimum inhibitory concentration (MIC), E. coli (water)): > 64 µg/mL
MIC ([19]; read-out: Range of MIC, E. coli (Water)): > 64 µg/mL
MIC [20, 70]: 0.5 to 2 µg/mL (≈ 0.627 to 2.51 µM)
MIC ([20]; MRSA, read-out: Range of MIC, Staph (Water)): 2 to 16 µg/mL (≈ 2.51 to 20.1 µM)
MIC [20, 71]: 1 to 4 µg/mL (≈ 1.25 to 5.01 µM)
MIC [20, 72]: 2 to 16 µg/mL (≈ 2.51 to 20.1 µM)
